Assay results taken from US20220218679A1, “NOVEL COMPOUNDS AND PHARMACEUTICAL COMPOSITIONS THEREOF FOR THE TREATMENT OF INFLAMMATORY DISORDERS” (Galapagos NV, priority 2019, published 2022).
Where two headings read alike, the source gives them in different places.

Experiments:
[1] = molecular target: T1, human IRAK-4 (Homo sapiens, UniProt Q9NWZ3); experiment: Phosphorylation IC50 determination for human IRAK-4 (ADP-Glo kinase assay); type: biochemical; conditions: RIP140 substrate, Km ATP, read-out: IRAK4 IC50
T1 construct: purchased Carna Biosciences 09 145
T1 sequence (Q9NWZ3 1-460): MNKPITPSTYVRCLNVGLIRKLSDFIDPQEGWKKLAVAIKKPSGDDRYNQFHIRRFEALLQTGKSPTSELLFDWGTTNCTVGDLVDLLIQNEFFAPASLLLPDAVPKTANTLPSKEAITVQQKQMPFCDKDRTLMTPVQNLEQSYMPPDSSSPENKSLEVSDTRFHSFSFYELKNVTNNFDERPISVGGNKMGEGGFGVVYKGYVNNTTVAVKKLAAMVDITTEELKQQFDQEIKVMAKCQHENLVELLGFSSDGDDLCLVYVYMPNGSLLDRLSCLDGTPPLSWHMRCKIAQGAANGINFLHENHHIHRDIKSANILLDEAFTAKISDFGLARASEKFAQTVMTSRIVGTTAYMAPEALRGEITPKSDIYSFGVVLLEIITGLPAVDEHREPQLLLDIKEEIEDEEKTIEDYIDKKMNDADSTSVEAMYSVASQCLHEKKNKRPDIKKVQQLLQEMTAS
Method: 3.1. Phosphorylation IC50 Determination for Human IRAK-4
The phosphorylation of the substrate RIP140 (SEQ IDi1) by IRAK4 at Km ATP was detected with the ADP-Glo Kinase Assay (Promega, Cat #V9103), a luminescent kinase assay which measures the ADP formed from a kinase reaction. (Zegzouti et al., 2009) In a second step the kinase reaction is terminated and all the remaining ATP was depleted. In a final step the ADP was converted into ATP and this newly synthesized ATP was measured by using a luciferase/luciferin reaction with a luminescent reader. The luminescent signal positively correlated with kinase activity, in particular kinase inhibition giving a decrease of the luminescent signal.
For the semi-automated assay, the positive control (100% inhibition) was prepared by diluting 10 mM staurosporine stock mixture (20 μL) in water (3.8 mL) and DMSO (180 μL), thus resulting in a […] staurosporine solution at 1% DMSO (final concentration after further dilution in the kinase reaction).
For the automated assay, no pre-dilution of the 10 mM staurosporine stock was made. 10 mM staurosporine was spotted directly in the assay plate using acoustic dispensing and complemented with DMSO to result in a similar final concentration as mentioned above.
For the semi-automated assay, the negative control (0% inhibition) was prepared by mixing water (3.8 mL) and DMSO (200 μL) resulting in a final concentration of 1% DMSO after further dilution in the kinase reaction. For the automated assay no pre-dilution of DMSO was done. 100% DMSO was spotted directly on the assay plate.
The assay buffer solution was prepared at a concentration corresponding to 5 fold the final (most diluted) assay concentration by mixing a solution of 125 mM TRIS pH 7.5+0.05% Triton X-100+2.5 mM EGTA (5.27 mL) with 1M MgCl2 (72 μL), 1M DTT (57.6 μL), and 200 mM MnCl2 (360 μL).
For example, for the semi-automated method, the enzyme-substrate mixture was prepared by mixing water (3999 μL), assay buffer solution (1380 μL), 1 mM RIP140 (138 μL—SEQ ID1), and 200 ng/mL IRAK 4 (3.45 μL Carna Biosciences, 09 145).
For semi-automated method, the ATP mixture was prepared at a concentration corresponding to 2.5 fold the final (most diluted) assay concentration of the semi-automated method and 1.5 fold the final (most diluted) assay concentration of the automated method. For example, for the semi-automated method, the ATP mixture was prepared by mixing water (4126 μL), assay buffer solution (1380 μL), and 10 mM ATP (13.80 μL).
The assay was performed either in a semi-automated or fully automated manner. The assay volume and the incubation time of the ADP detection were different accordingly the method used.
3.1.3.1. Semi-Automated Assay
The compounds were prepared as a serial dilution of 10 point dose responses with 1/5 dilution steps in 100% DMSO starting from 2 mM highest concentration, diluted 1/20 in water. 1 μL was transferred dry to the assay plates.
On each assay plate 32 wells of each control (positive & negative) were added, followed by 2 μL enzyme-substrate mixture.
The reaction was started by adding 2 μL diluted ATP (final concentration Km ATP) on the assay plates. Plates were centrifuged for a few seconds at 1000 rpm followed by an incubation at r.t. for 120 min.
The reactions were stopped and the unconsumed ATP was depleted by adding 5 μL ADP-glo Reagent (Promega, Cat #V9103) to the reaction. The plates were quickly centrifuged at 1000 rpm and incubated at r.t. for 40 min corresponding to full ATP depletion.
The ADP was converted back to ATP and luciferase and luciferin were introduced to detect ATP by adding 10 μL kinase detection reagent (Promega, Cat #V9103) to the reaction. The plates were centrifuged for a few seconds at 1000 rpm and incubated at r.t. for a further 30 min.
Luminescent read out was performed on an Envision luminescent reader (Perkin Elmer). […]

[2] = Thermodynamic solubility; type: physicochemical; conditions: 37 °C, thermodynamic from solid
Source text: 4.2. Thermodynamic Solubility
Poor solubility, in particular poor thermodynamic solubility can limit the absorption of compounds from the gastrointestinal tract which in turn may reduce oral bioavailability.
Thermodynamic solubility investigates the solubility of a compound as a saturated solution in equilibrium, by opposition to kinetic solubility, which measures the solubility of a metastable solution where supersaturation may occur and provide over estimation of the actual solubility of the compound. (Klein, 2010)
4.2.2. Thermodynamic Solubility—Protocol 2
In a 8 mL glass vial, 1-2 mg of dry matter of compound were added and stirred with the suitable buffers (Fed State Simulated Intestine Fluid, FeSSIF, or Fasted State Simulated Intestine Fluid, FaSSIF, or Fasted State Simulated Gastric Fluid, FaSSGF, or phosphate buffer pH 7.4) for 24 h at r.t. (for the buffer pH 7.4) or 37° C. (for the GI fluids). The concentration of the mixture was 1 mg/mL.
A volume of 1000 μL were sampled, centrifuged for 10 min at 10 000 rpm and 500 μL of the supernatant were filtered on captiva plate. The samples were diluted in duplicates in DMSO (F100 and F10). Then, a final dilution (F100) in 80/20 H2O/MeCN containing the internal standard (warfarin) was used for LCMS-MS analysis.
A standard curve was made starting from a 40,000 ng/mL stock in DMSO, freshly prepared from dry matter. Then, successive concentrations at 15,000, 11,000, 6,000, 2,500, 1,000, 375, 150 and 75 ng/mL in DMSO were prepared.
Three quality control samples were made: one of 10,000, 1,500 and 200 ng/mL in DMSO, also starting from the DMSO working stock solution at 40,000 ng/mL.
The standard curve and quality controls were diluted a F100 in 80/20 H2O/MeCN (with internal standard) and analyzed on LC/MS-MS (API4000 or API5500).
The samples were analyzed on LC-MS with a flow rate of 0.6 mL/min. The mobile phase A was 0.1% formic acid in water and the mobile phase B was 0.1% formic acid in 90% MeCN and 10% of H2O. The sample was run under positive or negative ion spray on Pursuit C18—5 μm (2.0×20 mm) column, from Agilent.
The ratio analyte/internal standard peaks areas of the standard curve were plotted in a graph and a linear or polynomial of the second order equation was used to calculate the unknown concentrations of the test compound.
Solubility values were reported in μg/mL.

[3] = system: CL097 triggered IFNα release in human whole blood; experiment: Ex vivo human IFNα release inhibition (human whole blood assay); type: cell-based; conditions: Homo sapiens, CL097 2 μg/mL, 3 h 30 min at 37° C.
Source text: (§1) 4.10.1. Ex Vivo Human IFNα and TNFα Release Inhibition (Human Whole Blood Assay)
(§2) The aim of the assay is to evaluate the activity of compounds of the invention on the activated TLR/IRAK-4 pathway in an ex vivo human whole blood setting. Toll-like receptors (TLRs) are pattern recognition receptors that recognize a wide variety of microbial molecules, called pathogen-associated molecular patterns (PAMPs). Human TLR7 and TLR8 recognize imidazoquinoline compounds (e.g., CL097—CAS n #1026249-18-2) and single stranded RNAs as their natural ligands. Activation of TLRs leads to the production of several cytokines (e.g., IFNα, TNFα, IL-8, IL-6) by the TLR agonist-treated cells, whereas IRAK4 leads to the production of IFNα. Cytokine release is used as readout in this assay and represents a measure for the level of inhibition of the TLR/IRAK-4 pathway by the tested compound. It should be noted that in the context of the complete organism, other sources for these cytokines exist that are not dependent on the TLR/IRAK-4 pathway, such as e.g., macrophages (upon activation of the Fcγ receptor (Yan et al., 2012)) or T cells (upon activation of the T cell receptor (Brehm et al., 2005)).
(§3) 4.10.1.1. Experimental Design
(§4) Blood was collected from healthy volunteers into lithium heparin tubes by venipuncture, then gently inverted several times to prevent clotting and incubated for at least 15 min at 37° C. on a rocking mixer shaker. Then, 100 μL of blood was dispensed into polypropylene 96-well microplate and pre-incubated in duplicate with 0.3% DMSO or test compound at different concentrations (from 30 to 0.01 μM, 3-fold dilutions to get 0.3% DMSO at the final) for 15 min at 37° C. After this pre-incubation, blood was triggered with CL097 (2 μg/mL from 1 mg/mL solution in water; InvivoGen, tlrl-c97) for 3 h 30 min at 37° C. Microtubes were centrifuged at 5000×g for 10 min at 4° C. and approximately 40 μL of plasma were collected into a polystyrene 96-well plate. Plasma could be analyzed freshly, within 30 min after triggering, or frozen at −80° C. Finally, the quantification of TNFα and IFNα were performed in the plasma using AlphaLISA Kit for TNFα and IFNα according to the manufacturer's instructions and read on the Ensight (PerkinElmer).
A standard curve was created by plotting on log-log the mean […] on the y-axis against the concentration on the x-axis and a 4-parameters logistic regression (4PL) was made through the points. For each blood sample, the IFNα concentrations of the samples were determined from the fit. Data were then expressed as a percentage of inhibition (PIN) for each replicate using the formula:
With mean IFNα with CL097=mean IFNα concentration of replicate samples triggered with CL097; IFNαsample1=IFNα concentration of sample 1; mean IFNα with vehicle=mean IFNα concentration of replicate samples treated with vehicle.
(§5) Curve fitting for pIC50 determination were generated using mean PIN±sem. Graphs and pIC50 calculations were derived using Prism 5.03 software (GraphPad).

[4] = system: CL097 triggered TNFα release in human whole blood; experiment: Ex vivo human TNFα release inhibition (human whole blood assay); type: cell-based; conditions: Homo sapiens, CL097 2 μg/mL, 3 h 30 min at 37° C.
Source text: as §1, §2, §3, §4
For each blood sample, the TNFα concentrations of the samples were determined from the fit. Data were then expressed a percentage of inhibition PIN for each replicate using the formula:
With mean TNFα with CL097=mean TNFα concentration of replicate samples triggered with CL097; TNFαsample1=TNFα concentration of sample 1; mean TNFα with vehicle=mean TNFα concentration of replicate samples treated with vehicle.
as §5

**Q.** Which IC50 [1] does the source give for `NC(=O)c1cn2nc(C3CCOCC3)cc2cc1NC(=O)c1cccc(C(F)(F)F)n1` [Compound 11, 2-tetrahydropyran-4-yl-5-[[6-(trifluoromethyl)pyridine-2-carbonyl]amino]pyrazolo[1,5-a]pyridine-6-carboxamide] here?
**A.** 0.1 to 5 nM

**Q.** Which results are given for `CNC(=O)c1cn2nc(C3CCOCC3)cc2cc1NC(=O)c1cccc(C(F)(F)F)n1` [Compound 14, N-methyl-2-tetrahydropyran-4-yl-5-[[6-(trifluoromethyl)pyridine-2-carbonyl]amino]pyrazolo[1,5-a]pyridine-6-carboxamide]?
**A.** solubility thermodynamic at 24 h ([2]; Fasted State Simulated Gastric Fluid (FaSSGF), fassgf or other biorelevant, Fasted State Simulated Gastric Fluid, read-out: Tsol FaSSGF): < 0.75 µg/mL; solubility thermodynamic at 24 h ([2]; Fasted State Simulated Intestine Fluid (FaSSIF), fassif, Fasted State Simulated Intestine Fluid, read-out: Tsol FaSSIF): < 0.75 µg/mL; IC50 [1]: 5 to 10 nM

**Q.** With `COc1cn2nc(CCS(C)(=O)=O)cc2cc1NC(=O)c1cccn(C2CC2)c1=O` [Compound 6, 1-cyclopropyl-N-[6-methoxy-2-(2-methylsulfonylethyl)pyrazolo[1,5-a]pyridin-5-yl]-2-oxo-pyridine-3-carboxamide] as the compound, how does the IC50 [3] read?
**A.** 500 to 1000 nM

**Q.** And the IC50 [4]?
**A.** 0.1 to 500 nM

**Q.** And the IC50 [1]?
**A.** 5 to 10 nM
